Test results as given in paper PMC6155255, “Synthetic Peptides Derived from Bovine Lactoferricin Exhibit Antimicrobial Activity against E. coli ATCC 11775, S. maltophilia ATCC 13636 and S. enteritidis ATCC 13076” (Molecules : A Journal of Synthetic Chemistry and Natural …, 2017).
Read-outs that look alike come from different tables or passages of the source. Positions of bridges follow the written chain, without caps; N, C: chain ends. Non-standard residues stand in square brackets, D forms with d. Residues, ends and D or L forms follow the SMILES beside them. Chains are numbered I, II in the order given. No end group written: not given here. Ahx = NCCCCCC(=O)O

Experiments:
[1] = test system: S. maltophilia ATCC 13636; assay type: cell-based, Stenotrophomonas maltophilia
Description: (§1) The MIC and MBC were determined using a microdilution assay. In brief, bacterial strains were incubated for 18 to 24 h at 37 °C in an MH broth until an optical density of 0.15 to 0.30 (620 nm) was obtained. 90 µL of Mueller-Hinton broth (MHB) were mixed with 90 µL of peptide (440 µg/mL), and using a 96-well microtiter plate peptide, serial dilution (200, 100, 50, 25, 12.5, and 6.2 µg/mL) was performed. 10 µL of inoculum (2 × 10^6 CFU/mL) was added to each well. Final volume in each well was 100 µL. Then they were incubated for 24 h at 37 °C; and the absorbance at 620 nm was measured using an Asys Expert Plus ELISA reader. To determine the MBC, an aliquot was taken from each well and was spread onto a MHA plate. After 24 h at 37 °C, the CFU/mL was determined. Each of these tests was performed twice.

[2] = test system: S. enteritidis ATCC 13076; assay type: cell-based, Salmonella enteritidis
Description: as §1

E. coli ATCC 11775 = assay type: cell-based, Escherichia coli
Description: as §1

E. coli K88 = test system: E. coli K88; design: method as in PMID 11248238, PMID 21607695, doi:10.1002/(SICI)1099-1387(199901)5:1<32::AID-PSC172>3.0.CO; details: cited from earlier work
E. coli ATCC 25922 [3] = details: cited from earlier work
Description: This apparent discrepancy could be related to the method used for determining the MIC [46, 47]. The antibacterial activity of LfcinB against E. coli IID861 was determined using the microdilution method with Mueller-Hinton broth (MIC = 50 µg/mL) or peptone-based broth (MIC = 6 µg/mL). […] Antibacterial activity against E. coli ATCC 25922 has also been reported, s ...

E. coli ATCC 25922 [4] = test system: E. coli ATCC 25922
[5] = S. maltophilia ATCC 13636, aliquot of each well spread on MHA plate, 24 h at 37 °C, CFU/mL, performed twice
[6] = S. maltophilia ATCC 13636, microdilution, Mueller-Hinton broth, 24 h at 37 °C, absorbance 620 nm, 6.2-200 µg/mL tested, performed twice
[7] = S. enteritidis ATCC 13076, aliquot of each well spread on MHA plate, 24 h at 37 °C, CFU/mL, performed twice
[8] = S. enteritidis ATCC 13076, microdilution, Mueller-Hinton broth, 24 h at 37 °C, absorbance 620 nm, 6.2-200 µg/mL tested, performed twice
[9] = E. coli ATCC 11775, aliquot of each well spread on MHA plate, 24 h at 37 °C, CFU/mL, performed twice
[10] = E. coli ATCC 11775, microdilution, Mueller-Hinton broth, 24 h at 37 °C, absorbance 620 nm, 6.2-200 µg/mL tested, performed twice
[11] = E. coli ATCC 11775, value in brackets (µM), aliquot spread on MHA plate, 24 h at 37 °C, performed twice
[12] = E. coli ATCC 11775, value in brackets (µM), microdilution, Mueller-Hinton broth, 24 h at 37 °C, performed twice

Compound	MBC ([1]; ATCC 13636, 24 h)	MIC ([1]; ATCC 13636, 24 h)	MBC [1, 5] [µg/mL]	MIC [1, 6] [µg/mL]	MBC ([2]; ATCC 13076, 24 h) [µM]	MIC ([2]; ATCC 13076, 24 h) [µM]	MBC [2, 7] [µg/mL]	MIC [2, 8] [µg/mL]	MBC (E. coli ATCC 11775; ATCC 11775, 24 h) [µM]	MIC (E. coli ATCC 11775; ATCC 11775, 24 h) [µM]	MBC (E. coli ATCC 11775; [9]) [µg/mL]	MIC (E. coli ATCC 11775; [10]) [µg/mL]	MBC (E. coli ATCC 11775; [11]) [µM]	MIC (E. coli ATCC 11775; [12]) [µM]	MIC ([2]; S. enteritidis ATCC 13076, value in brackets (µM), microdilution, Mueller-Hinton broth, 24 h at 37 °C, performed twice) [µM]	MIC (E. coli K88) [µg/mL]	MIC (E. coli ATCC 25922 [3]) [µg/mL]	MIC (E. coli ATCC 25922 [4]) [µg/mL]	MIC (E. coli ATCC 25922 [3]; palindromic sequences) [µg/mL]
CSCC[C@H](NC(=O)[C@H](CCCNC(=N)N)NC(=O)[C@H](Cc1c[nH]c2ccccc12)NC(=O)[C@H](CCC(N)=O)NC(=O)[C@H](Cc1c[nH]c2ccccc12)NC(=O)[C@H](CCCNC(=N)N)NC(=O)[C@H](CCCNC(=N)N)NC(=O)[C@H](CS)NC(=O)[C@H](CCCCN)NC(=O)[C@@H](N)Cc1ccccc1)C(=O)N[C@@H](CCCCN)C(=O)N[C@@H](CCCCN)C(=O)N[C@@H](CC(C)C)C(=O)NCC(=O)N[C@@H](C)C(N)=O [LfcinB 17–31]	> 100 µM	> 100 µM	> 200	> 200	100	> 100	200	> 200	13	13	25	25	12.5	12.5	–	–	–	–	–
N=C(N)NCCC[C@H](NC(=O)[C@H](Cc1c[nH]c2ccccc12)NC(=O)[C@H](CCC(N)=O)NC(=O)[C@H](Cc1c[nH]c2ccccc12)NC(=O)[C@H](CCCNC(=N)N)NC(=O)[C@@H](N)CCCNC(=N)N)C(=O)NCCCC[C@H](NC(=O)[C@H](CCCNC(=N)N)NC(=O)[C@H](Cc1c[nH]c2ccccc12)NC(=O)[C@H](CCC(N)=O)NC(=O)[C@H](Cc1c[nH]c2ccccc12)NC(=O)[C@H](CCCNC(=N)N)NC(=O)[C@@H](N)CCCNC(=N)N)C(=O)NCCCCCC(N)=O [LfcinB (20–25)2] (I: H-RRWQWRK[Ahx]-NH2 / II: H-RRWQWR; amide I:7-II:C)	22.4 µM	22.4 µM	50	50	5.6	6	12.5	12.5	3	3	6.2	6.2	2.8	2.8	5.6	–	–	–	–
N=C(N)NCCC[C@H](NC(=O)[C@H](Cc1c[nH]c2ccccc12)NC(=O)[C@H](CCC(N)=O)NC(=O)[C@H](Cc1c[nH]c2ccccc12)NC(=O)[C@H](CCCNC(=N)N)NC(=O)[C@@H](N)CCCNC(=N)N)C(=O)NCCCC[C@H](NC(=O)[C@H](CCCNC(=N)N)NC(=O)[C@H](Cc1c[nH]c2ccccc12)NC(=O)[C@H](CCC(N)=O)NC(=O)[C@H](Cc1c[nH]c2ccccc12)NC(=O)[C@H](CCCNC(=N)N)NC(=O)[C@@H](N)CCCNC(=N)N)C(=O)NCCCCCC(=O)N[C@@H](CSSC[C@H](NC(=O)CCCCCNC(=O)[C@H](CCCCNC(=O)[C@H](CCCNC(=N)N)NC(=O)[C@H](Cc1c[nH]c2ccccc12)NC(=O)[C@H](CCC(N)=O)NC(=O)[C@H](Cc1c[nH]c2ccccc12)NC(=O)[C@H](CCCNC(=N)N)NC(=O)[C@@H](N)CCCNC(=N)N)NC(=O)[C@H](CCCNC(=N)N)NC(=O)[C@H](Cc1c[nH]c2ccccc12)NC(=O)[C@H](CCC(N)=O)NC(=O)[C@H](Cc1c[nH]c2ccccc12)NC(=O)[C@H](CCCNC(=N)N)NC(=O)[C@@H](N)CCCNC(=N)N)C(N)=O)C(N)=O [LfcinB (20–25)4] (I: H-RRWQWRK[Ahx]C-NH2 / II: H-RRWQWRK[Ahx]C-NH2 / III: H-RRWQWR / IV: H-RRWQWR; amide I:7-III:C, II:7-IV:C; disulfide I:9-II:9)	44 µM	> 44 µM	200	> 200	22	44	100	200	5	5	25	25	5.5	5.5	–	–	–	–	–
N=C(N)NCCC[C@@H]1NC(=O)[C@H](Cc2c[nH]c3ccccc23)NC(=O)[C@H](CCC(N)=O)NC(=O)[C@H](Cc2c[nH]c3ccccc23)NC(=O)[C@H](CCCNC(=N)N)NC(=O)[C@H](CCCNC(=N)N)NC(=O)[C@@H](N)CSSC[C@@H](C(N)=O)NC(=O)CCCCCNC1=O [LfcinB (20–25)Cyc] (H-CRRWQWR[Ahx]C-NH2; disulfide 1-9; N-terminus assumed)	200 µg/mL	200 µg/mL	–	–	42	42	50	50	19	19	25	25	21	21	–	–	–	–	–
FKCRRWAQRWRMKKLGAPSITCVRRAF [synthetic peptide homolog to LfcinB, 27 residues, from the literature]	–	–	–	–	–	–	–	–	–	–	–	–	–	–	–	64	30	–	–
KCRRWAQRWRMKKLGAPSITCVR [shorter peptide, 23 residues, from the literature]	–	–	–	–	–	–	–	–	–	–	–	–	–	–	–	–	30	–	–
RRWQWR-NH2 [LfcinB 20–25]	> 203 µM	> 203 µM	–	–	102	102	–	–	13	13	–	–	–	–	–	–	–	–	–
RWQWRWQWR-NH2 [LfcinB 21–25Pal]	136 µM	> 136 µM	–	–	17	17	–	–	8	8	–	–	–	–	–	–	–	40	–
RWRWR	–	–	–	–	–	–	–	–	–	–	–	–	–	–	–	–	–	–	200
WRWRW	–	–	–	–	–	–	–	–	–	–	–	–	–	–	–	–	–	–	15
WRYRW	–	–	–	–	–	–	–	–	–	–	–	–	–	–	–	–	–	–	100
